The subject of series [1] is TNF induced by viable bacteria in RAW 264.7 cells. Briefly: TNF induction in RAW 264.7 cells by intact bacteria / secreted LPS-protein complexes. To be noted: for Unit of TNF induced / Unit of TNF induced (% of control): 20 μg of peptide. It is filed as cell-based, murine. The protocol:
After an overnight incubation, the media was aspirated from all the wells. 100 μl of Lipopolysaccharide (LPS) was added at 100 ng/100 μl. CEME or CEMA was added at the desired concentration/100 μl to specified wells. […] The plates were then incubated for six hours at 37° C., 5% CO2. The supernatant was then removed from the wells and stored overnight at 4° C. For those wells in which whole bacteria were added directly to the wells, the supernatant was centrifuged in 0.2 μm filter eppendorf tubes for 5 minutes.
In intact cell induction experiments, 10^6 E. coli Bort cells induced 11,967-14,805 Units of TNF per ml in RAW cells.
To examine effects on whole bacterium induction of TNF, bacteria, grown in Luria broth overnight (approximately 1×10^8 /ml) and diluted to […] organisms per ml, and RAW 264.7 cells were each added to separate compartments of a transwell diffusion chamber, which contained a 0.2 μm membrane filter separating the two compartments. Peptides were added, when appropriate, to the bacterium-containing compartment at a final concentration of 20 μg/ml. TNF levels were measured after 6 hours of incubation at 37° C. in 5% CO2. All assays were performed three times with similar results.
TNF was measured in cell culture supernatants and mouse serum on the basis of cytoxicity for L929 fibroblast cell. […] TNF activity was expressed in units as the reciprocal of the dilution of TNF that caused 50% cytotoxicity of L929 cells, as computed using the ELISA+program (Meddata, Inc., New York, N.Y.). In our hands one unit of TNF corresponded to 62.5 pg/ml of recombinant murine TNF (Genzyme Corp.).
In man and animal infections, LPS is probably not released as a purified molecule, but rather in association with other bacterial cell components. To mimic this situation, a model system was employed in which the LPS-protein complexes that are naturally released from bacteria were used as a stimulus to induce TNF production in RAW 264.7 cells. Viable cells of E. coli Bort and 0111:B4 or P. aeruginosa H103 were incubated in a transwell filter unit in which a 0.2 μm membrane filter separated the intact bacteria from the compartment containing the RAW 264.7 cells. […] Addition of 20 μg/ml of peptide to 10^5, 10^6, and 10^7 viable to E. coli 0111:B4 (Table 11) and Bort cells reduced the TNF levels by 90%-96%.

Series [2] relates to LPS-induced TNF in RAW 264.7 cells. Briefly: Preincubation of RAW cells with peptide, wash, and supernatant transfer before LPS. It is filed as cell-based, murine. The settings on record: for depression of TNF induction by aspirated medium containing CEMA: fresh RAW cells. The protocol:
In order to determine how rapidly CEMA reduced LPS-induced TNF production, E. coli 0111:B4 or Bort LPS was added at time 0 to RAW macrophages. CEMA or Polymyxin B was added at time 0, 30 and 60 minutes. Levels of TNF were measured after 6 hours. […] To confirm that CEMA was acting on LPS rather than directly upon macrophage cell lines, 20 μg of CEMA was added to RAW cells and incubated for 60 minutes prior to aspiration of the medium and washing the cells 3 times with HBSS (Hanks Buffered Salt Solution).
To ensure that the cationic peptides were interacting with the LPS rather than the cell lines, […], and after incubation at 37° C. in 5% CO2 for 60 minutes, the supernatant was removed and added to a second well of untreated RAW 264.7 cells. Fresh medium was added to the peptide-treated RAW cells and 100 ng/ml of LPS was then added to both the peptide-treated cells and those reconstituted with supernatant, and these wells assayed for TNF production after 6 hours incubation at 37° C. in 5% CO2.
Both CEME and CEMA were reproducibly able to inhibit the induction, by E. coli 0111:B4 LPS, of TNF secretion by RAW 264.7 cells (Table 10). […] Virtually the same results were obtained with E. coli Bort LPS and in preliminary experiments with P. aeruginosa strain H 103 LPS. […] In contrast the supernatants from these preincubations (which presumably contained the peptides) when added to fresh RAW 264.7 cells, were able to suppress the ability of these cells to induce TNF in response to LPS stimulation, producing only 4451 units per ml;.

For series [3], the system named is P. aeruginosa strain M2. Briefly: Survival of neutropenic mice challenged intraperitoneally with bacteria. It counts as in vivo, Pseudomonas aeruginosa. The protocol:
To measure the anti-bacterial effect of peptides, a similar strategy was employed. Female CD-1 mice were rendered neutropenic with 3 injections of cyclophosphamide as described previously. (Cryz, S. J., Inf. Immun., 39(2): 1067, 1983) An […] dose of Pseudomonas aeruginosa strain M2 (approximately 10^2 organisms per mouse) was injected intra peritoneally and in the single dose experiments, 100 μl of PBS or sterile water containing 200 μg (8.7 mg/kg) of a cationic peptide was injected immediately afterwards. […] Survival was recorded at 24 and 48 hours.

Series [4] can be described thus: Lethality of peptide alone in mice. It counts as in vivo.
Series [5] can be described thus: MIC of common antibiotics in the presence of sub-MIC levels of cationic peptides. It is filed as cell-based. An excerpt: The ability of the cationic peptides to work synergistically was examined by determining the MIC values for some commonly used antibiotics in the presence of sub-MIC levels of cationic peptides (Table 4). […] This may be due to the high membrane permeabilizing activity of CEMA (see below). However, the peptides did lower the MIC of polymyxin B, possibly due to the fact that they are all taken up by the same pathway and are therefore aiding each other's uptake. Of interest is the influence that melittin has on the MIC of polymyxin B, given the weak membrane permeabilizing activity of melittin.

Where [6] appears, read: 10^5 viable E. coli 0111:B4 cells.
The mark [7] stands for this setting: 10^6 viable E. coli 0111:B4 cells.
Setting [8] is: 10^7 viable E. coli 0111:B4 cells.
[9] abbreviates: single dose 200 μg (8.7 mg/kg) i.p.
Where [10] appears, read: two injections at 2 hours and 12 hour after P. aeruginosa.

The record followed here is patent publication US5688767A, “Treatment of endotoxin-associated disorders with cationic peptides” (priority 1996, dated 1997).

Values joined by “and” are separate entries in the source; they are usually repeats but may differ in a detail not shown here. Identical values can stand only once.

`CC[C@H](C)[C@H](NC(=O)CNC(=O)[C@@H](NC(=O)[C@H](CCCCN)NC(=O)[C@H](CCCCN)NC(=O)[C@H](Cc1ccccc1)NC(=O)[C@H](CC(C)C)NC(=O)[C@H](CCCCN)NC(=O)[C@H](Cc1c[nH]c2ccccc12)NC(=O)[C@@H](N)CCCCN)[C@@H](C)CC)C(=O)NCC(=O)N[C@@H](C)C(=O)N[C@H](C(=O)N[C@@H](CC(C)C)C(=O)N[C@@H](CCCCN)C(=O)N[C@H](C(=O)N[C@@H](CC(C)C)C(=O)N[C@H](C(=O)N[C@H](C(=O)NCC(=O)N[C@@H](CC(C)C)C(=O)N1CCC[C@H]1C(=O)N[C@@H](C)C(=O)N[C@@H](CC(C)C)C(=O)N[C@@H](CCCCN)C(=O)N[C@@H](CC(C)C)C(=O)N[C@H](C(=O)N[C@@H](CCCCN)C(=O)O)[C@@H](C)O)[C@@H](C)O)[C@@H](C)O)C(C)C)C(C)C` [CEMA]: in series [1] (20 μg of CEMA, 10^6 E. coli Bort cells, two independent experiments), the “reduction in TNF levels” value is 96% and 97%. For the same compound, in series [1] (20 μg/ml CEMA, 10^6 viable P. aeruginosa), the “reduction of TNF induction” value was determined as 96%. The results for the “Unit of TNF induced” value in series [1] (setting [6]), in series [1] (setting [7]) and in series [1] (setting [8]) were 552 ± 61 units/ml, 1892 ± 1370 units/ml and 4126 ± 3890 units/ml, respectively. Besides, the “Unit of TNF induced (% of control)” value is reported as 4.5% in series [1] (setting [6]), 6.0% in series [1] (setting [7]) and 8.5% in series [1] (setting [8]). Also, in series [2] (20 μg CEMA preincubated 60 minutes, washed 3 times, then 10 ng or 100 ng of LPS), the “TNF induction in washed RAW cells” value is 14,000-20,000 Units of TNF per ml. For the same compound, the “TNF induction in peptide-preincubated RAW 264.7 cells” value in series [2] (CEMA 20 μg/ml preincubated 60 minutes, supernatant removed, fresh medium and 100 ng/ml E. coli 0111:B4 LPS) stood at 19062 Units per ml. Further, the figures for the “depression of TNF induction by aspirated medium containing CEMA” value in series [2] (10 ng E. coli Bort LPS) and in series [2] (100 ng E. coli Bort LPS) were 98.5% and 75%, respectively. Further, in series [2] (supernatants from CEMA 20 μg/ml preincubations, LPS stimulation), the “TNF induction in fresh RAW 264.7 cells given preincubation supernatants” value is recorded as 4451 units per ml. The results for the “Survival (%)” value in series [3] (setting [9]) and in series [3] (setting [10]) were 43.3% and 55.0%, respectively. Further, the “Survival (survivors/total)” value in series [3] (setting [9]) is given as 13/30; in series [3] (setting [10]), 11/20. Further, in series [4] (200 μg (8.7 mg/kg) alone), the “survival of mice given peptide alone” value is “survived”. The “% Mortality” value in series [4] (no LPS, peptide 200 ug) was 0%. Further, in series [4] (no LPS, peptide 200 ug), the dead/total was 0/5.

Consider polymyxin B, for which the “MIC in the presence of” value was 0.5 μg/m1 in series [5] (CEMA 0.7 μg/ml); 0.12 μg/m1 in series [5] (CEMA 1.4 μg/ml); 0.5 μg/m1 in series [5] (CEME 0.6 μg/ml); 0.25 μg/m1 in series [5] (CEME 1.2 μg/ml); 0.5 μg/m1 in series [5] (Melittin 2 μg/ml); 0.06 μg/m1 in series [5] (Melittin 4 μg/ml). For the same compound, the “MIC in the presence of” value in series [5] (No peptide) was determined as 1 μg/m1.
